Read-outs that look alike come from different tables or passages of the source.
What was measured:
AKR1C4 = AKR1C4 (Homo sapiens (Human), UniProt P17516); test: AKR enzyme inhibition assay, AKR1C4; assay type: biochemical; conditions: Table 2; recombinant enzyme; read-out: IC50 ± SD AKR1C4
Description: (§4) Assay of enzyme activity: The dehydrogenase activities of AKR1C1, AKR1C2, and AKR1C3 were determined by measuring the formation of NADH formation at 340 nm using Beckman DU640 spectrophotometer. […] After continuously monitoring for 5 min, the increase in UV absorption using different concentrations of enzyme were recorded to calculate the initial velocity and determine enzyme specific activity. IC50 value determination: The inhibitory potency for each compound was represented by IC50 value and measured as described before. […] The concentration of S-tetralol used in the assays for each AKR1C isoform was equal to the Km value for the respective enzyme so that IC50 values could be directly compared assuming a competitive pattern of inhibition. […] In this equation, “range” is the fitted uninhibited value minus the “background”, and “S” is a slope factor. “I” is the concentration of inhibitor. The equation assumes that y falls with increasing “I”.

AKR1C3 = AKR1C3 (Homo sapiens (Human), UniProt P42330); test: AKR enzyme inhibition assay, NADP+ dependent oxidation of S-tetralol, AKR1C3; assay type: biochemical; conditions: for selectivity over AKR1C2: AKR1C3 over AKR1C2; for Selectivity 1C2:1C3: ratio of AKR1C2 to AKR1C3 IC50
Sequence of AKR1C3 (P42330 whole entry): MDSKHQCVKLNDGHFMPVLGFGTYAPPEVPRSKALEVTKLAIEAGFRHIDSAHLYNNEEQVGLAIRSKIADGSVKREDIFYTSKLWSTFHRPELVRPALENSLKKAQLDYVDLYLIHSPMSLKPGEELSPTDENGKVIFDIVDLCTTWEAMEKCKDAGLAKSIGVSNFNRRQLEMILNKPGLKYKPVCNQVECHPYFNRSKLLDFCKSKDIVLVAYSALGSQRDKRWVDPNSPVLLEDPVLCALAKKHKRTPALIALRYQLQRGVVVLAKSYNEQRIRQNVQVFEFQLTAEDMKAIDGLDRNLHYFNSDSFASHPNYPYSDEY
Description: (§5) Structure-Activity Relationship: The ability of compounds to inhibit AKR1C3 in the first instance were determined by measuring the NADP+ dependent oxidation of S-tetralol catalyzed by recombinant enzyme as described herein. […] Assay of enzyme activity: The dehydrogenase activities of AKR1C1, AKR1C2, and AKR1C3 were determined by measuring the formation of NADH formation at 340 nm using Beckman DU640 spectrophotometer. […] After continuously monitoring for 5 min, the increase in UV absorption using different concentrations of enzyme were recorded to calculate the initial velocity and determine enzyme specific activity. IC50 value determination: The inhibitory potency for each compound was represented by IC50 value and measured as described before. […] The concentration of S-tetralol used in the assays for each AKR1C isoform was equal to the Km value for the respective enzyme so that IC50 values could be directly compared assuming a competitive pattern of inhibition. […] In this equation, “range” is the fitted uninhibited value minus the “background”, and “S” is a slope factor. “I” is the concentration of inhibitor. The equation assumes that y falls with increasing “I”.

AKR1C2 = AKR1C2 (Homo sapiens (Human), UniProt P52895); test: AKR enzyme inhibition assay, NADP+ dependent oxidation of S-tetralol, AKR1C2 counter-screen; assay type: biochemical; conditions: Table 2; recombinant enzyme, S-tetralol at Km; read-out: IC50 ± SD AKR1C2
Sequence of AKR1C2 (P52895 whole entry): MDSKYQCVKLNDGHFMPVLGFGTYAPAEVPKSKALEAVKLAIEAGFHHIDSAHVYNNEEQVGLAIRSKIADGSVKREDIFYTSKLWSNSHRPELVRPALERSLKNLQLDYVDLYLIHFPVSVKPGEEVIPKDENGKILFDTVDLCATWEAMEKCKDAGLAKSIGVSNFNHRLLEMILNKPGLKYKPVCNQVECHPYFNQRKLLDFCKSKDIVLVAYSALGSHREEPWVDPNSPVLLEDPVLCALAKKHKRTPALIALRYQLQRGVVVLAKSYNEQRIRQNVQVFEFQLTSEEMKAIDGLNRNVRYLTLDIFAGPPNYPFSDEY
Description: as §5

AKR1C1 = AKR1C1 (Homo sapiens (Human), UniProt Q04828); test: AKR enzyme inhibition assay, NADP+ dependent oxidation of S-tetralol, AKR1C1; assay type: biochemical; conditions: Table 2; recombinant enzyme, S-tetralol at Km; read-out: IC50 ± SD AKR1C1
Sequence of AKR1C1 (Q04828 whole entry): as the sequence (P52895 whole entry) above, with V38T, H47R, V54L, S87C, M151V, H170R, L172Q counted along it
Description: as §4

[1] = In vitro stability in mouse plasma; assay type: in vitro ADME; conditions: mouse plasma
Description: (§1) Liquid chromatography and mass spectrometry (LCMS/MS): The ultra-performance liquid chromatography mass spectrometry system (UPLC-MS/MS) consisted of a Shimadzu 8060NX mass spectrometer and Nexera Series UPLC (Shimadzu Scientific Instruments, Columbia, MD). Analyte separation was achieved utilizing an Acquity UPLC® BEH column (C18, 2.1×100 mm, 1.7 μm) equipped with an Acquity UPLC C18 guard column (Waters, Inc. Milford MA). The mobile phase consisted of water containing 0.1% formic acid (mobile phase A) and methanol (mobile phase B) at a flow rate of 0.25 mL/min operated at room temperature. The total run time was set to last 7.5 min with a gradient elution as follows: 35% B, increasing to 95% B over 3.5 minutes, then held constant for 3.0 minutes, and finally brought back to the initial condition of 35% B in 0.20 minutes followed by 1-minute re-equilibration. The injection volume (2 μL) was consistent for all samples. The auto-sampler chamber was maintained at 4° C. throughout the analysis.
Plasma sample preparation: Plasma samples were prepared by spiking 5 μL of the appropriate calibration (CC) and quality (QCs) control working stock into a 45 μL blank mouse plasma. The concentration of the CC ranged from 0.2-1000 ng/mL with the final concentrations of 0.2, 0.5, 1, 5, 10, 50, 100, 500, and 1000 ng/mL. A simple protein precipitation technique using Phree 96 well phospholipid elimination plate (Phenomenex Inc, Torrance CA.) was utilized to isolate analyte from the plasma matrix. The CC, QCs and study plasma samples were added to Phree 96 well plate and spiked with 10 μL of IS a working solution. The precipitation of the matrix proteins was carried out using 300 μL of ice-cold acetonitrile. The plate was again vortexed on mixmate at 950 rpm for 2 min followed by applied 5 psi positive pressure for 10 min (Resprep VM-96 Vacuum Manifold for 96-Well Plates, Catalog #25858) (Restek; Bellefonte, PA) to collect the supernatant. Two microliters of the reconstituted sample was injected into LC-MS/MS for analysis. […]

[2] = In vivo pharmacokinetic study, oral gavage; design: species or system BALB/c mice
Description: as §1
The MS/MS system was operated at unit resolution in the multiple reaction monitoring (MRM) in positive ESI mode, using precursor ion>product ion combinations of 427.20>105.10 for A1-r and 413.15>265.10 m/z for 4r. The mass spectrometer source settings were optimized to the following: nebulizer gas: 2.0 L/min; heating gas: 10 L/min; drying gas: 10 L/min; interface temperature: 300° C.; desolvation line temperature: 250° C.; heat block temperature: 400° C. Data acquisition and quantitation were performed using LabSolutions software Ver.5.99 (Shimadzu Scientific Inc, Columbia, MD).
Plasma sample preparation: Plasma samples were prepared by spiking 5 μL of the appropriate calibration (CC) and quality (QCs) control working stock into a 45 μL blank mouse plasma. The concentration of the CC ranged from 0.2-1000 ng/mL with the final concentrations of 0.2, 0.5, 1, 5, 10, 50, 100, 500, and 1000 ng/mL. A simple protein precipitation technique using Phree 96 well phospholipid elimination plate (Phenomenex Inc, Torrance CA.) was utilized to isolate analyte from the plasma matrix. The CC, QCs and study plasma samples were added to Phree 96 well plate and spiked with 10 μL of IS a working solution. The precipitation of the matrix proteins was carried out using 300 μL of ice-cold acetonitrile. The plate was again vortexed on mixmate at 950 rpm for 2 min followed by applied 5 psi positive pressure for 10 min (Resprep VM-96 Vacuum Manifold for 96-Well Plates, Catalog #25858) (Restek; Bellefonte, PA) to collect the supernatant. Two microliters of the reconstituted sample was injected into LC-MS/MS for analysis.
In vivo pharmacokinetic studies: Animal studies were approved by the University of Nebraska Medical Center (UNMC) Institutional Animal Care and Use Committee (IACUC protocol number 17-046-06-FC). BALB/c mice were purchased from Charles River Labs. Pharmacokinetic (PK) studies of A1-r and 4r were conducted in BALB/c mice. Animals were housed in the University of Nebraska Medical Center animal facility, for at least 7 days prior to the experiments, in order to acclimatize the animals to the laboratory conditions, at a temperature of 23-24° C., relative humidity of 40-70% and 12/12 h light/dark cycles with free access to food and water. The dosing solution was made of DMSO-Polyethylene glycol 400 (PEG400)-Propylene glycol (PG)-EtOH-Cremophore-PBS (2/20/10/10/5/53% v/v). Compound A1-r or 4r (10 mg/kg) was administered separately by oral gavage. After dosing, approximately 50 μL of blood was collected from the maxillary vein at 5, 15, 30 minutes and 1, 2, 7, and 24 hr (5 mice/group/per time point). A total of three blood samples were collected, with the third blood sample a terminal collection. Plasma was separated by centrifugation at 4,000×g at 4° C. for 10 minutes. The collected plasma samples were stored at −80° C. until analysis. […]

[3] = In vitro metabolic stability in human liver microsomes; assay type: in vitro ADME; conditions: 1 μg/mL, % parent remaining
Description: (§2) In vitro metabolic stability in liver microsomes: Metabolic stability was assessed using mouse and human liver microsomes, (XenoTech, LLC, Lenexa, KS). Incubation of A1-r and 4r with the microsome fractions was performed in triplicate utilizing a concentration of 1 μg/mL as previously described. Serial samples (40 μL) were collected at selected time intervals and quenched with 300 μL of acetonitrile and then spiked with 10 μL of IS (0.5 μg/mL). All the samples were vortexed and centrifuged at 13,000×g for 15 min, and the supernatant was collected and transferred to an autosampler vial and injected (2 μL) onto the LC-MS/MS system. Testosterone, 7-HC and diclofenac were used as positive controls to ensure that the microsomes and incubation conditions were appropriate to conduct metabolism studies.

[4] = In vitro metabolic stability in mouse liver microsomes; assay type: in vitro ADME; conditions: 1 μg/mL, % parent remaining
Description: as §2

[5] = In vitro stability in simulated intestinal fluid (SIF); assay type: in vitro ADME; conditions: SIF for 2 h
Description: (§3) In vitro stability studies: Gastrointestinal (GI) fluid stability studies were performed in simulated gastric fluid (SGF) and simulated intestinal fluid (SIF). All the required media were prepared according to the USP guidelines. Mouse plasma stability were performed for neat-spiked and plasma spiked samples (pre-extraction) at 37° C. for 4 h. In addition to the analyte stability in matrix, at 48 h stability of the extracted samples was performed at 4° C. in the autosampler.

[6] = In vitro stability in simulated gastric fluid (SGF); assay type: in vitro ADME; conditions: SGF for 1 h
Description: as §3

[7] = Table 2, recombinant enzyme, S-tetralol at Km, read-out: IC50 ± SD AKR1C3
[8] = after oral administration (10 mg/kg) of 4r, Balb/c mice, plasma, mean ± SD, n = 5
[9] = after oral administration (10 mg/kg) of A1-r, Balb/c mice, mean ± SD, n = 5
[10] = after oral administration (10 mg/kg) of A1-r, Balb/c mice, plasma, mean ± SD, n = 5

Sequence of AKR1C4 (P17516 whole entry): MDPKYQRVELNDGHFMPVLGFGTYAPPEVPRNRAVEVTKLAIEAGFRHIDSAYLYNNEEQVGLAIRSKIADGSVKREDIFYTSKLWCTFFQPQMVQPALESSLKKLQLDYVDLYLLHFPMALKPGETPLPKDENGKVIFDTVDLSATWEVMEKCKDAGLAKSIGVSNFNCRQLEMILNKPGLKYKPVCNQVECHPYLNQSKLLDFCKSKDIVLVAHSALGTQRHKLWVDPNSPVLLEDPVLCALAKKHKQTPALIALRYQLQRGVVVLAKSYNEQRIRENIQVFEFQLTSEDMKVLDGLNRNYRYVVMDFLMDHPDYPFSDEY

Row | IC50 (AKR1C4) [µM] | selectivity over AKR1C2 (AKR1C3) [fold] | IC50 (AKR1C3; [7]) [µM] | IC50 (AKR1C2) [µM] | IC50 (AKR1C1) [µM] | Selectivity 1C2:1C3 (AKR1C3; Table 2) | Structure (SMILES) | also measured
1 | 11 ± 3.1 | 221 | 0.14 ± 0.015 | 31 ± 2.8 | 36 ± 5.5 |  | Cc1ccc(CNC(=O)c2cc(/C=C/C(=O)O)cc(-c3ccc(-n4c5ccccc5c5ccccc54)cc3)c2)cc1 [Compound A1-v, (E)-3-(4′-(9H-Carbazol-9-yl)-5-((4-methylbenzyl)carbamoyl)-[1,1′-biphenyl]-3-yl)acrylic acid] | 
2 | 53 ± 7.1 | 200 | 0.11 ± 0.011 | 22 ± 4.5 | > 100 |  | Cc1ccc(CNC(=O)c2cc(/C=C/C(=O)O)cc(-c3ccc4c(c3)OCCO4)c2)cc1 [Compound A1-s, (E)-3-(3-(2,3-Dihydrobenzo[b][1,4]dioxin-6-yl)-5-((4-methylbenzyl)carbamoyl)phenyl)acrylic acid] | 
3 | 22 ± 2.3 |  | 0.11 ± 0.017 | 12 ± 2.8 | 80 ± 13 | 109 | Cc1ccc(CNC(=O)c2cc(/C=C/C(=O)O)cc(-c3ccc4cccnc4c3)c2)cc1 [Compound A1-p, (E)-3-(3-((4-Methylbenzyl)carbamoyl)-5-(quinolin-7-yl)phenyl)acrylic acid] | 
4 | 43 ± 6 |  | 0.051 ± 0.006 | 62 ± 21 | > 100 | 1216 | Cc1ccc(CNC(=O)c2cc(/C=C/C(=O)O)cc(-c3ccc4ncnn4c3)c2)cc1 [Compound A1-r, (E)-3-(3-([1,2,4]triazolo[1,5-a]pyridin-6-yl)-5-((4-methylbenzyl)carbamoyl)phenyl)acrylic acid] | time stable in mouse plasma [1]: over 240 minutes; AUC0-t [2, 8]: 6382.8 ng·h/mL; Cmax [2, 8]: 11599.4 ng/mL; Tmax [2, 8]: 12 min; CI/F [2, 9]: 323 mL/min/kg; Extrapolated AUC % [2, 9]: 28.8%; Vz/F [2, 9]: 405.0 L/kg; AUC0-INF [2, 10]: 515.1 ng·h/mL; AUC0-t [2, 10]: 367.6 ng·h/mL; Cmax [2, 10]: 174.8 ng/mL; Tmax [2, 10]: 6 min; t1/2 [2, 10]: 864 min; detection at the last study point (24 hours) ([2]; oral 10 mg/Kg 4r, 24 hours): detected; time at which detected in plasma after oral administration ([2]; oral 10 mg/Kg, male Balb/C mice): ≤ 5 min; metabolic stability in HLM [3]: stable; metabolic stability in MLM [4]: stable; stability in simulated intestinal fluid (SIF) [5]: stable; stability in simulated gastric fluid (SGF) [6]: stable
5 | 70 ± 11 | 354 |  | 39 ± 9 | > 100 |  | C/C=C/Cc1cc(/C=C/C(=O)O)cc(C(=O)NCc2ccc(C)cc2)c1 [Compound A1-z, (E)-3-(3-((E)-But-2-en-1-yl)-5-((4-methylbenzyl)carbamoyl)phenyl)acrylic acid] | IC50 (AKR1C3; read-out: IC50 AKR1C3): 0.11 µM
6 | 6 ± 0.5 |  | 0.06 ± 0.007 | 20 ± 9 | > 100 | 333 | Cc1ccc(CNC(=O)c2cc(/C=C/C(=O)O)cc(-c3ccc(Cl)cc3)c2)cc1 [Compound A1-c, (E)-3-(4′-Chloro-5-((4-methylbenzyl)carbamoyl)-[1,1′-biphenyl]-3-yl)acrylic acid] | 
7 | 10 ± 1.72 |  | 0.1 ± 0.008 | 16 ± 3.9 | 66 ± 17 | 160 | Cc1ccc(CNC(=O)c2cc(/C=C/C(=O)O)cc(-c3ccc(C)cc3)c2)cc1 [Compound A1-i, (E)-3-(4′-Methyl-5-((4-methylbenzyl)carbamoyl)-[1,1′-biphenyl]-3-yl)acrylic acid] | 
8 | 6.1 ± 0.47 | 140 |  | 14 ± 4.1 | 78 ± 9.3 |  | Cc1ccc(CNC(=O)c2cc(/C=C/C(=O)O)cc(-c3ccc4ccccc4c3)c2)cc1 [Compound A1-o, (E)-3-(3-((4-Methylbenzyl)carbamoyl)-5-(naphthalen-2-yl)phenyl)acrylic acid] | IC50 (AKR1C3; read-out: IC50 AKR1C3): 0.1 µM
